Laboratory results from patent publication US20250304973A1, “HIGH-AFFINITY THROMBIN APTAMERS AND METHODS OF USE” (Ayass Bioscience LLC, priority 2024, published 2025).
Entries after “also recorded” stand apart in the source; their conditions may differ.

Key:
[1] = tested on: human peripheral blood mononuclear cells (hPBMCs); test: Immunogenic reaction on human PBMCs (LEGENDplex Human Inflammation Panel); format: cell-based; conditions: for immune stimulation (secretion of inflammatory cytokines and chemokines): 1, 5, 10 uM aptamer, 24 and 72 h, versus mock or control aptamer
Procedure: 147. Human PBMCs were isolated from buffy coats provided by Carter BloodCare(Bedford, TX, USA). Isolation was carried out through density-gradient centrifugation utilizing FicollPaque Plus from GE Healthcare. The isolated human PBMCs suspended in cRPMI media were subjected to stimulation with or without the AYA1809002 and AYA1809004 aptamers and a control aptamer. Various concentrations (1, 5, and 10 uM) of these aptamers were used, along with positive control stimuli such as LPS (200 ng/mL), ODN 1826 (20 uM, Invitrogen), or a combination of LPS (100 ng/mL) and ODN 1826 (10 uM). Following incubation periods of 24 and 72 h, the cell supernatant was collected via centrifugation at 200 g for 3 min. Cytokine levels were evaluated using the LEGENDplex Human Inflammation Panel 1 from BioLegend (cat #740808, San Diego, CA, USA) following the manufacturer's protocol, soluble analytes were acquired using a Navios EX flow cytometer (Beckman Coulter Inc, Pasadena, CA USA), and subsequent analysis was performed using BioLegend's LEGENDPLEX™ system(San Diego, CA, USA).

thrombin = thrombin (Homo sapiens, UniProt P00734); test: Direct thrombin activity inhibition (Thrombin Inhibitor Screening Assay Kit, fluorometric); format: biochemical; design: a thrombin enzyme mixture was added to each sample and control well; purchased Abcam ab197007; conditions: different aptamer concentrations; AMC substrate, 360/460 nm, 45 min, 37° C.
Procedure: 141. A Thrombin Inhibitor Screening Assay Kit (fluorometric) (Abcam, cat #ab197007, Waltham, Boston, MA, USA) was employed to test the direct binding ability and inhibitory potential of the AYA1809002 and AYA1809004 aptamers against thrombin. The procedure was carried out following the standard protocol provided with the kit. […] Subsequently, a thrombin enzyme mixture was added to each sample and control well. Following an incubation period of 20 min, a substrate mixture was introduced into each sample and control well. Fluorescence measurements were taken using a SYNERGY/HTX multi-mode reader (BioTek, Agilent Technologies, Santa Clara, CA 95051, USA) with the excitation/emission wavelengths set at 360/460 nm. The measurements were recorded for 45 min at a temperature of 37° C. while ensuring protection from light.
155. The direct binding and inhibitory capabilities of AYA1809002 and AYA1809004 ap- tamers on thrombin were evaluated using a Thrombin Inhibitor Screening Assay Kit (fluorometric). The procedure was carried out following the standard protocol provided with the kit. […] The fluorescence intensity is then measured over time to assess the thrombin inhibitory potential of the sample. […] The released AMC is detectable through fluorescence measurement at an excitation/emission wavelength of 360/460 nm.

human citrated plasma = test: Activated partial thromboplastin time (APTT) assay in human citrated plasma; format: biochemical; conditions: 2 uM, 2 h, versus untreated control
Procedure: 137. Sterile human blood in sodium citrate was purchased from the Rockland Immuno- chemicals, Inc (cat #R214-0050, Pottstown, PA 19464, USA). Plasma was prepared by centrifugation for 10 min at 2000×g. In vitro activity assays were performed on ACLTOP analyzer manufactured by Instrumentation Laboratory, which is a type of coagulation analyzer commonly used in clinical laboratories to measure clotting times and assess coagulation parameters. The ACLTOP analyzer is designed to perform a wide range of coagulation tests, including Factor II activity, prothrombin time (PT), activated partial thromboplastin time (APTT), fibrinogen, and other related assays. ACLTOP analyzer uses HemosIL reagents developed by Instrumentation Laboratory company (Bedford, MA, USA) to perform coagulation tests.
140. […] APTT time was measured using the synthetic phospholipid reagent SynthASIil for quantitative determination in human citrated plasma on an ACLTOP coagulation analyzer manufactured by Instrumentation Laboratory (Bed- ford, MA, USA).
146. Modified aptamers chemically crosslinked with TAG, PEG, and cholesterol entities at the 3′ end, were purchased from IDT (Integrated DNA Technologies, Coralville, IA, USA). The impact of modified AYA1809002 and AYA1809004 aptamers on Factor II activity, PT, and APTT was evaluated using the same protocol as was used for the unmodified aptamers. Additionally, the potential for reversal was investigated using the respective reverse complement for each aptamer.

clot-bound thrombin = biological target: T1, clot-bound thrombin (Homo sapiens, UniProt P00734); test: Clot-bound thrombin inhibition; format: biochemical; conditions: for inhibition of clot-bound thrombin: washed clots from platelet-rich plasma, fluorogenic substrate, 90 min, 37° C.
T1 construct: from tissue; host or cells: washed fibrin clots formed from platelet-rich plasma of healthy donors
Procedure: 145. For the inhibition study of clot-bound thrombin, blood samples were collected from healthy donors using citrate-treated tubes and centrifuged at 200×g for 15 min at room temperature. The resulting supernatant consisting of platelet-rich plasma (PRP) was collected and aliquots of 500 μL were transferred to microfuge tubes containing 50 μL of 300 mM CaCl2). The mixture was then incubated for 2 h at 37° C. in an incubator without agitation. The formed clots were washed ten times over the course of 16 h at room temperature; each time, 1 mL aliquots of TBS buffer (50 mM Tris-HCl, 100 mM NaCl, pH 7.4) were added to the clots with mixing. Subsequently, the washed clots were transferred to the assay plate (ThermoFisher Scientific, cat #3915, Waltham, MA, USA). […] After a 20 min incubation period with agitation, a thrombin substrate (, Thrombin substrate III, Fluorogenic, Sigma-Aldrich, cat #605211, St. Louis, MO, USA) was added to each sample at a final concentration of 200 μM. Fluorescence measurements were performed using a SYNERGY/HTX multi-mode reader (BioTek, Agilent Technologies, Santa Clara, CA 95051, USA) with the excitation/emission wavelengths set at 360/460 nm. The measurements were recorded for a total duration of 90 min at a temperature of 37° C.

| Substance | immune stimulation (secretion of inflammatory cytokines and chemokines) [1] | Safety: immunogenicity and side effects ([1]; Table 3) | inhibition of thrombin activity (thrombin) | increase in APTT time (human citrated plasma) | level of clot-bound thrombin inhibition, comparison (clot-bound thrombin; comparison between aptamers and with dabigatran 2 μM) | inhibition of clot-bound thrombin (clot-bound thrombin) |
| --- | --- | --- | --- | --- | --- | --- |
| AYA1809002: ssDNA thrombin aptamer GCGGTGTTGCTGGGGTTGGGAGGTTGGAGGAAGCAATCGC | do not exhibit immune-stimulating properties; also recorded: did not exhibit immune-stimulating properties | Low immunogenicity | dose-dependent inhibition of thrombin activity | approximate four-fold increase | higher level of inhibition compared to AYA1809004 | inhibit clot-bound thrombin in a concentration-dependent manner |
| AYA1809004: ssDNA thrombin aptamer TCGTCAAGGTACGGTTGGGGGGGTGGGTGTTGACGTTGAA (DNA, backbone not given here) | do not exhibit immune-stimulating properties |  | dose-dependent inhibition of thrombin activity | approximate four-fold increase |  | inhibit clot-bound thrombin in a concentration-dependent manner |
